Molecular target: T1, AHR (UniProt P35869)
T1 construct: IC50
T1 sequence (P35869 1-848): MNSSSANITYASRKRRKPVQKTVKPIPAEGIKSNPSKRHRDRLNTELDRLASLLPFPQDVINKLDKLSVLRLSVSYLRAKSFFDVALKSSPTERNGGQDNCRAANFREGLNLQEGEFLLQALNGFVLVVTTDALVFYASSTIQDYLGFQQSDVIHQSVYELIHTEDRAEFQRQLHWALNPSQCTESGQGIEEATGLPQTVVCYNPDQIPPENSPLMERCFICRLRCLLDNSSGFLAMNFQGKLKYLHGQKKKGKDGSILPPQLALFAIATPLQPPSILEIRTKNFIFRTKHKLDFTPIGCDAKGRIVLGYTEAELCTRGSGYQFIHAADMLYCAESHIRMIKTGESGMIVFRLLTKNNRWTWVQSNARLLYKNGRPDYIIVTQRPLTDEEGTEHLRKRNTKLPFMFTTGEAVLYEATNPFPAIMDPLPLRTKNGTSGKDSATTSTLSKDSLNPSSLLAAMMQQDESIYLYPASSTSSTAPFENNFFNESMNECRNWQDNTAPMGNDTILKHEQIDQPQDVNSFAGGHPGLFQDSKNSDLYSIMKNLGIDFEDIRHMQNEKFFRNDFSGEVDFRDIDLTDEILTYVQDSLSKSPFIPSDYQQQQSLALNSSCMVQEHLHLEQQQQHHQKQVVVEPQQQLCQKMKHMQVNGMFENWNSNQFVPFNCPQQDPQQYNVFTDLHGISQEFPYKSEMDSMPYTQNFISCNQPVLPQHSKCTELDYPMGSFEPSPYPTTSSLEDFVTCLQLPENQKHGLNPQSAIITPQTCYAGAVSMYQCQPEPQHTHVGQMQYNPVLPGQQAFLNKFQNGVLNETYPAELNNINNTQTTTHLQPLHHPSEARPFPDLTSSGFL
Assay: DRE-Luciferase Reporter Assay (Alternate Method) (Example 1B)
Assay type: cell-based, murine or human
Settings: cell line and AHR activating ligand not specified
Procedure: AHR binds to Dioxin Responsive Elements (DRE) upstream of genes that it activates. One measure of AHR activity is activation of a reporter gene, such as luciferase, downstream of one or multiple DRE elements. Luciferase activity will reflect activation and inhibition of AHR in the cells expressing his reporter.
Murine Hepa1-6 or Hepa-1c1c7 or other murine cell line with a DRE-luciferase reporter either stably or transiently transfected were plated in media in plates (96-well, 384-well or other plates) and incubated overnight at 37° C. in a CO2 incubator or compound and agonist were added at the time of plating. Likewise, human HepG2 or other human cell line with a DRE-luciferase reporter either stably or transiently transfected were plated in media in plates (96-well, 384-well or other plates) and incubated overnight at 37° C. in a CO2 incubator or compound and agonist were added at the time of plating.
At the time that cells are plated or following incubation overnight, an AHR activating ligand, such as TCDD, kynurenine, ITE (2-(1H-indole-3-ylcarbonyl)-4-thiazolecarboxylic methyl ester), VAF347, BNF (beta-naphthoflavone), FICZ (6-formylindolo(3,2-b) carbazole or other AHR ligands, was added with or without AHR antagonist.
Cells were incubated for 4, 15 or 24 hours or another time point and then lysed for determination of luciferase activity as a read-out of the AHR activation or inhibition. Luciferase was measured with a commercial kit such as the Promega Luciferase kit or any kit or reagents that provide the luciferin substrate for measuring luciferase activity. The level of luciferase with only activating ligand added was the maximum signal while the luciferase with no ligand was the minimum signal. IC50 values were determined as the concentration which inhibits half of the luciferase activity.

Structure (SMILES)	IC50 [nM]
CC(C)n1cnc2c(NCCc3c[nH]c4ccncc34)nc(-c3cncc(F)c3)nc21 [I-8, 2-(5-Fluoro-3-pyridyl)-9-isopropyl-N-[2-(1H-pyrrolo[3,2-c]pyridin-3-yl)ethyl]purin-6-amine]	> 1500
CC(C)c1cnn2c(NC3CCc4[nH]c5ccccc5c4C3)nc(-c3ccc4c(c3)OC(F)(F)O4)nc12 (stereo not shown) [I-271]	> 1500
CC(C)c1cnn2c(N[C@H]3CCc4nc(N)sc4C3)nc(-c3cncc(F)c3)nc12 [I-128a, (6S)—N6-[2-(5-Fluoro-3-pyridyl)-8-isopropyl-pyrazolo[1,5-a][1,3,5]triazin-4-yl]-4,5,6,7-tetrahydro-1,3-benzothiazole-2,6-diamine]	> 1500
CC(C)n1cnc2c(NCCc3cn(C)c4ccccc34)nc(-c3cncc(F)c3)nc21 [I-14, 2-(5-Fluoropyridin-3-yl)-9-isopropyl-N-(2-(1-methyl-1H-indol-3-yl)ethyl)-9H-purin-6-amine]	> 1500
Cc1[nH]c2ccccc2c1CCNc1cc(-c2cncc(F)c2)nc2c(C(C)C)cnn12 [I-89, 5-(5-fluoro-3-pyridyl)-3-isopropyl-N-[2-(2-methyl-1H-indol-3-yl)ethyl]pyrazolo[1,5-a]pyrimidin-7-amine]	< 500
Fc1cncc(-c2nc(NCCc3c[nH]c4ccccc34)c3ncccc3n2)c1 [I-257, 2-(5-Fluoro-3-pyridyl)-N-[2-(1H-indol-3-yl)ethyl]pyrido[3,2-d]pyrimidin-4-amine]	< 500
OCc1cnn2c(NCCc3c[nH]c4ccccc34)cc(-c3cncc(F)c3)nc12 [I-197, [5-(5-Fluoro-3-pyridyl)-7-[2-(1H-indol-3-yl)ethylamino]pyrazolo[1,5-a]pyrimidin-3-yl]methanol]	< 500
CC(C)c1cnn2c(NC3CCc4[nH]c5ccccc5c4C3)nc(-c3ccnnc3)nc12 (stereo not shown) [I-284]	500 to 1000
CC(C)c1cnn2c(NC3CCc4[nH]c5c(F)cccc5c4C3)cc(-c3cncc(F)c3)nc12 (stereo not shown) [I-221]	> 1500
CC(C)c1cnn2c(NC3CCc4[nH]c5ccccc5c4C3)cc(-c3cccc4c3OCO4)nc12 (stereo not shown) [I-228]	> 1500
OCc1cnn2c(NCCc3c[nH]c4ccc(O)cc34)cc(-c3cncc(F)c3)nc12 [I-143, 3-[2-[[5-(5-fluoro-3-pyridyl)-3-(hydroxymethyl)pyrazolo[1,5-a]pyrimidin-7-yl]amino]ethyl]-1H-indol-5-ol]	> 1500
CC(C)Oc1nc(N[C@@H]2CCc3[nH]c4ccccc4c3C2)nc(-c2cncc(F)c2)n1 [I-135, (3R)—N-[4-(5-Fluoro-3-pyridyl)-6-isopropoxy-1,3,5-triazin-2-yl]-2,3,4,9-tetrahydro-1H-carbazol-3-amine]	< 500
O=C(O)c1cnn2c(NCCc3c[nH]c4ccccc34)cc(-c3cncc(F)c3)nc12 [I-183]	> 1500
CC(C)c1cnn2c(NC3Cc4ccccc4C3)cc(-c3cncc(F)c3)nc12 [I-44, 5-(5-Fluoro-3-pyridyl)-N-indan-2-yl-3-isopropyl-pyrazolo[1,5-a]pyrimidin-7-amine]	> 1500
Cc1cnn2c(OCCc3c[nH]c4ccccc34)cc(-c3cncc(F)c3)nc12 [I-184]	> 1500
Cc1c(-c2cncc(F)c2)nc2c(C)cnn2c1N[C@@H]1CCc2[nH]c3ccccc3c2C1 [I-157]	> 1500
CN(C)C(=O)c1cnn2c(NC3CCc4[nH]c5ccccc5c4C3)nc(-c3cncc(F)c3)nc12 (stereo not shown) [I-288]	< 500
Cc1cnn2c(N[C@@H](Cc3c[nH]c4ccccc34)C(=O)N(C)C)cc(-c3cncc(F)c3)nc12 [I-187b, (2S)-2-[[5-(5-Fluoro-3-pyridyl)-3-methyl-pyrazolo[1,5-a]pyrimidin-7-yl]amino]-3-(1H-indol-3-yl)-N,N-dimethyl-propanamide]	> 1500
CC(C)c1cnn2c(N[C@@H]3CCc4[nH]c5ccccc5c4C3)cc(-c3cncc(C#N)c3)nc12 [I-38, 5-[3-Isopropyl-7-[[(3R)-2,3,4,9-tetrahydro-1H-carbazol-3-yl]amino]pyrazolo[1,5-a]pyrimidin-5-yl]pyridine-3-carbonitrile]	> 1500
Fc1cncc(-c2ccnc(NCCc3c[nH]c4ccccc34)n2)c1 [I-120, 4-(5-Fluoro-3-pyridyl)-N-[2-(1H-indol-3-yl)ethyl]pyrimidin-2-amine]	> 1500
CC(C)c1cnn2c(N[C@H]3Cc4ccc(O)cc4C3)cc(-c3cncc(F)c3)nc12 [I-220, (2S)-2-[[5-(5-fluoro-3-pyridyl)-3-isopropyl-pyrazolo[1,5-a]pyrimidin-7-yl]amino]indan-5-ol]	< 500

Results, then the compound that gave them:

IC50 [nM]	Structure (SMILES)
500 to 1000	Cc1cnn2c(N[C@@H]3CCc4[nH]c5c(F)cccc5c4C3)cc(-c3cncc(F)c3)nc12 [I-216a, (3R)-8-Fluoro-N-[5-(5-fluoro-3-pyridyl)-3-methyl-pyrazolo[1,5-a]pyrimidin-7-yl]-2,3,4,9-tetrahydro-1H-carbazol-3-amine]
< 500	Cc1[nH]c2c(F)cccc2c1CCNc1cc(-c2cncc(F)c2)nc2c(C(=O)N3CCOCC3)cnn12 [I-225, [7-[2-(7-Fluoro-2-methyl-1H-indol-3-yl)ethylamino]-5-(5-fluoro-3-pyridyl)pyrazolo[1,5-a]pyrimidin-3-yl]-morpholino-methanone]
500 to 1000	CC(C)n1cnc2c(NCCc3ccc(O)cc3)nc(-c3csc4ccccc34)nc21 [I-233]
> 1500	CC(C)c1cnn2c(NC3CCc4[nH]c5ccccc5c4C3)cc(-c3cccc(F)c3)nc12 (stereo not shown) [I-238]
> 1500	Cc1cnn2c(NC[C@H](C)c3c[nH]c4ccccc34)cc(-c3cncc(F)c3)nc12 [I-160b, 5-(5-Fluoro-3-pyridyl)-N-[(2R)-2-(1H-indol-3-yl)propyl]-3-methyl-pyrazolo[1,5-a]pyrimidin-7-amine]
< 500	CNC(=O)c1cnn2c(NCCc3c[nH]c4ccccc34)cc(-c3cncc(F)c3)nc12 [I-61, 5-(5-Fluoro-3-pyridyl)-7-[2-(1H-indol-3-yl)ethylamino]-N-methyl-pyrazolo[1,5-a]pyrimidine-3-carboxamide]
> 1500	CC(C)n1cnc2c(NCCn3cnc4ccccc43)nc(-c3cncc(F)c3)nc21 [I-13, N-(2-(1H-Benzo[d]imidazol-1-yl)ethyl)-2-(5-fluoropyridin-3-yl)-9-isopropyl-9H-purin-6-amine]
> 1500	Cc1cnn2c(N[C@@H]3CCc4[nH]c5ccccc5c4C3)cc(-c3cncc(F)c3)nc12 [I-34, (3R)—N-[5-(5-Fluoro-3-pyridyl)-3-methyl-pyrazolo[1,5-a]pyrimidin-7-yl]-2,3,4,9-tetrahydro-1H-carbazol-3-amine]
500 to 1000	CC(C)Oc1nc(NCCc2c[nH]c3ccccc23)cc(-c2cncc(F)c2)n1 [I-80, 6-(5-Fluoro-3-pyridyl)-N-[2-(1H-indol-3-yl)ethyl]-2-isopropoxy-pyrimidin-4-amine]
> 1500	CC(C)c1cnn2c(NC3CCc4[nH]c5ccccc5c4C3)cc(-c3ccc4c(c3)OCO4)nc12 (stereo not shown) [I-239]
< 500	Fc1cncc(-c2nc(NCCc3c[nH]c4ccccc34)cc(N3CCOCC3)n2)c1 [I-64, 2-(5-Fluoro-3-pyridyl)-N-[2-(1H-indol-3-yl)ethyl]-6-morpholino-pyrimidin-4-amine]
< 500	CC(C)Oc1cc(NCCc2c[nH]c3ccccc23)nc(-c2cncc(C#N)c2)n1 [I-54, 5-[4-[2-(1H-indol-3-yl)ethylamino]-6-isopropoxy-pyrimidin-2-yl]pyridine-3-carbonitrile]
> 1500	Cc1cnn2c(NC(Cc3c[nH]c4ccccc34)CN(C)C)cc(-c3cncc(F)c3)nc12 (stereo not shown) [I-176]

Reference: US11358969B2, “Indole AHR inhibitors and uses thereof” (Ikena Oncology, Inc., priority 2017, dated 2022)
